Source: patent publication US7932270B2 (Cytokinetics, Inc., priority 2006, dated 2011)

What follows are compounds tested against T1, chicken gizzard smooth muscle myosin subfragment-1 chemically crosslinked to cardiac or skeletal actin (Gallus gallus, UniProt P10587) (assay: Smooth muscle myosin ATPase dose response assay (pyruvate kinase/horseradish peroxidase/pyruvate oxidase-coupled, amplex red fluorescence)). Details: read-out: IC50 Arithmetic Mean.
T1 construct: chicken gizzard smooth muscle myosin subfragment-1; from tissue; host or cells: chicken gizzard
T1 sequence (P02607 2-151): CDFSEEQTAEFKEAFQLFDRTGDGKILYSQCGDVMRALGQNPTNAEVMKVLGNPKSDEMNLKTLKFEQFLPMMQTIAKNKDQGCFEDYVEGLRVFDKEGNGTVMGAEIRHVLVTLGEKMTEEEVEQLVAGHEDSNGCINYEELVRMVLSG
T1 sequence (P10587 84-789): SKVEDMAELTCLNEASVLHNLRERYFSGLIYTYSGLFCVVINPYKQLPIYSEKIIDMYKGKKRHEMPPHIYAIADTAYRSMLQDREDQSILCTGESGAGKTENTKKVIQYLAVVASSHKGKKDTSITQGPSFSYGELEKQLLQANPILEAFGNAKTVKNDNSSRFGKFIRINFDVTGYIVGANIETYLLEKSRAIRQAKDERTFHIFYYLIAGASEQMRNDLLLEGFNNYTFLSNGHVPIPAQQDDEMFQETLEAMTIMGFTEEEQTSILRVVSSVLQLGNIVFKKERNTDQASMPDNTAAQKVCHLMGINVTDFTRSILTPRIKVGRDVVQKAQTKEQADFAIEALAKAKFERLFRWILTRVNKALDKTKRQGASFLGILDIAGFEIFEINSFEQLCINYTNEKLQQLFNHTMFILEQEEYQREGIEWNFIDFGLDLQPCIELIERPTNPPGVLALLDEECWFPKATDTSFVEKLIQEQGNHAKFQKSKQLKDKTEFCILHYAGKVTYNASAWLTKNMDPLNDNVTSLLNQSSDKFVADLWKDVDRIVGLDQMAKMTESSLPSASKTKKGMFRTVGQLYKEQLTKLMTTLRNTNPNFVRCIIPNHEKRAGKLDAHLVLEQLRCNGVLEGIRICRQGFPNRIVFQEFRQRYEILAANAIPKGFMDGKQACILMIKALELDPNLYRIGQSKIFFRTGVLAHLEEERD
Assay type: biochemical
Summary of the method: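 ATPase monitored by amplex red fluorescence (ex 480/em 615 nm) via pyruvate oxidase/HRP coupling, pH 7.00, ATP 0.15 mM. Enzyme: smooth muscle S1-actin crosslinked conjugate, amount set empirically by titration. Dose-response fitted with 4-parameter Hill equation for IC50.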

Question: `O=C(NCc1cccnc1)c1ccc(-c2cccnc2)nc1NCCc1ccccn1` [N-(3-pyridylmethyl){6-(3-pyridyl)-2-[(2-(2-pyridyl)ethyl)amino](3-pyridyl)}carboxamide] was tested. Which IC50 did it give?
Answer: 19100 nM

Question: For `O=C(NCc1cccnc1)c1ccc(-c2ccncc2)nc1NCCc1ccccn1` [N-(3-pyridylmethyl){6-(4-pyridyl)-2-[(2-(2-pyridyl)ethyl)amino](3-pyridyl)}carboxamide], which IC50 is on record?
Answer: 6560 nM

Question: For `N#Cc1ccccc1-c1ccc(C(=O)NC(CCCN)C(N)=O)c(NCCc2cccc(F)c2)n1` (centres unmarked) [N-(4-amino-1-carbamoylbutyl)(6-(2-cyanophenyl)-2-{[2-(3-fluorophenyl)ethyl]amino}(3-pyridyl))carboxamide], which IC50 is on record?
Answer: 590 nM

Question: How did the IC50 turn out when `N#Cc1ccccc1-c1ccc(C(=O)NCCCCN)c(NCCc2cccc(F)c2)n1` [N-(4-aminobutyl)(6-(2-cyanophenyl)-2-{[2-(3-fluorophenyl)ethyl]amino}(3-pyridyl))carboxamide] was run?
Answer: 416 nM

Question: How did the IC50 turn out when `CC(=O)Nc1ccc(-c2ccc(C(=O)NCc3cccnc3)c(NCCc3ccccn3)n2)cc1` [N-(4-{6-[(2-(2-pyridyl)ethyl)amino]-5-[N-(3-pyridylmethyl)carbamoyl]-2-pyridyl}phenyl)acetamide] was run?
Answer: 1220 nM

Question: How did the IC50 turn out when `N#Cc1ccccc1-c1ccc(C(=O)NCCCCCN)c(NCCc2cccc(F)c2)n1` [N-(5-aminopentyl)(6-(2-cyanophenyl)-2-{[2-(3-fluorophenyl)ethyl]amino}(3-pyridyl))carboxamide] was run?
Answer: 154 nM

Question: With `N#Cc1ccccc1-c1ccc(C(=O)NCCCCCCN)c(NCCc2cccc(F)c2)n1` [N-(6-aminohexyl)(6-(2-cyanophenyl)-2-{[2-(3-fluorophenyl)ethyl]amino}(3-pyridyl))carboxamide] as the compound, how does the IC50 read?
Answer: 1240 nM

Question: Which IC50 does the source give for `Cn1cc(-c2nc(NCCc3cccc(F)c3)c(C(=O)NC[C@H](CO)NC(=O)OC(C)(C)C)cc2F)cn1` [N-((1R)-1-{[(5-fluoro-2-{[2-(3-fluorophenyl)ethyl]amino}-6-(1-methylpyrazol-4-yl)(3-pyridyl))carbonylamino]methyl}-2-hydroxyethyl)(tert-butoxy)carboxamide] here?
Answer: 25900 nM

Question: With `CC[C@H](CNC(=O)c1cc(F)c(-c2cnn(C)c2)nc1NCCc1cccc(F)c1)NC(=O)CNC(=O)OC(C)(C)C` [N-((1R)-1-{[(5-fluoro-2-{[2-(3-fluorophenyl)ethyl]amino}-6-(1-methylpyrazol-4-yl)(3-pyridyl))carbonylamino]methyl}propyl)-2-[(tert-butoxy)carbonylamino]acetamide] as the compound, how does the IC50 read?
Answer: 3040 nM

Question: With `CC[C@H](CNC(=O)c1cc(F)c(-c2cnn(C)c2)nc1NCCc1cccc(F)c1)NC(=O)CN` [N-((1R)-1-{[(5-fluoro-2-{[2-(3-fluorophenyl)ethyl]amino}-6-(1-methylpyrazol-4-yl)(3-pyridyl))carbonylamino]methyl}propyl)-2-aminoacetamide] as the compound, how does the IC50 read?
Answer: 131 nM

Question: Which IC50 does the source give for `CC[C@H](CNC(=O)c1cc(F)c(-c2cn[nH]c2)nc1NCCc1cccc(F)c1)NC(=O)CNC(=O)OC(C)(C)C` [N-((1R)-1-{[(5-fluoro-2-{[2-(3-fluorophenyl)ethyl]amino}-6-pyrazol-4-yl(3-pyridyl))carbonylamino]methyl}propyl)-2-[(tert-butoxy)carbonylamino]acetamide] here?
Answer: 4320 nM

Question: `CC[C@H](CNC(=O)c1cc(F)c(-c2cn[nH]c2)nc1NCCc1cccc(F)c1)NC(=O)CN` [N-((1R)-1-{[(5-fluoro-2-{[2-(3-fluorophenyl)ethyl]amino}-6-pyrazol-4-yl(3-pyridyl))carbonylamino]methyl}propyl)-2-aminoacetamide] was tested. Which IC50 did it give?
Answer: 160 nM

Question: How did the IC50 turn out when `CC(C)[C@H](CNC(=O)c1ccc(-c2ccccc2C#N)nc1NCCc1cccc(F)c1)NC(=O)CN` [N-((1R)-1-{[(6-(2-cyanophenyl)-2-{[2-(3-fluorophenyl)ethyl]amino}(3-pyridyl))carbonylamino]methyl}-2-methylpropyl)-2-aminoacetamide] was run?
Answer: 939 nM

Question: `CC(C)[C@H](CNC(=O)c1ccc(-c2ccccc2C#N)nc1NCCc1cccc(F)c1)NC(=O)CO` [N-((1R)-1-{[(6-(2-cyanophenyl)-2-{[2-(3-fluorophenyl)ethyl]amino}(3-pyridyl))carbonylamino]methyl}-2-methylpropyl)-2-hydroxyacetamide] was tested. Which IC50 did it give?
Answer: 441 nM
